By inhibition is commonly meant the share of the control response that was lost under treatment.

The values below come from ChEMBL document CHEMBL3046254, “Antifeedant Activity Evaluation of Withanolides from Jaborosa integrifolia” (2000).

The test system of assay [1] is Spodoptera littoralis. The experiment in a line: Antifeedant activity against Spodoptera littoralis assessed as inhibition of diet consumption at 20 ug/cm2 by leaf disk choice assay relative to control. In kind it is functional. The note with it: foliar.
The subject of assay [2] is Spodoptera littoralis. The experiment in a line: Antifeedant activity against Spodoptera littoralis assessed as inhibition of diet consumption by leaf disk choice assay relative to control. Format: functional.

Each structure is given as a SMILES string.

With `CC1=C(CO)C(=O)O[C@@H]([C@@H](C)[C@H]2CC[C@H]3[C@@H]4C[C@H]5O[C@]56CC=CC(=O)[C@]6(C)[C@H]4CC[C@]23C)C1` [JABOROSALACTONE A], in the assay on Spodoptera littoralis [1], the inhibition at 20 µg/cm2 stood at 74%. As to `CC1=C(CO)C(=O)O[C@@H]([C@@H](C)[C@H]2CC[C@H]3[C@@H]4C[C@@H](O)C5=CC=CC(=O)[C@]5(C)[C@H]4CC[C@]23C)C1` [JABOROSALACTONE B], the “inhibition (INH)” value in the assay with Spodoptera littoralis [2] was 19%. The same measure, in the same setting: to `CC1=C(CO)C(=O)O[C@@H]([C@@H](C)[C@H]2CC[C@H]3[C@@H]4C[C@@H](O)[C@@]5(O)CC=CC(=O)[C@]5(C)[C@H]4CC[C@]23C)C1` [JABOROSALACTONE D] belongs -19%.
